Test results from patent US10681909B2, “Herbicidal triazoles” (FMC Corporation, priority 2014, dated 2020).

What was measured:
foxtail, giant = experiment: Test C preemergence; assay type: in vivo, Setaria faberii; details: for Plant response rating (scale of 0 to 100 where 0 is no effect and 100 is complete control): Foxtail, Giant, preemergence; for Foxtail, Giant plant response rating (0 to 100): Preemergence, visual rating after 13 to 15 d
From the text: (§1) Seeds of plant species selected from blackgrass (Alopecurus myosuroides), ryegrass, Italian (Italian ryegrass, Lolium multiflorum), wheat (winter wheat, Triticum aestivum), galium (catchweed bedstraw, Galium aparine), corn (Zea mays), crabgrass, large (large crabgrass, Digitaria sanguinalis), foxtail, giant, (giant foxtail, Setaria faberii), johnsongrass (Sorghum halepense), lambsquarters (Chenopodium album), morningglory (Ipomoea coccinea), nutsedge, yellow (yellow nutsedge, Cyperus esculentus), pigweed (Amaranthus retroflexus), ragweed (common ragweed, Ambrosia elatior), soybean (Glycine max), barnyardgrass (Echinochloa crus-galli), oilseed rape (Brassica napus), waterhemp (common waterhemp, Amaranthus rudis), and velvetleaf (Abutilon theophrasti) were planted into a blend of loam soil and sand and treated preemergence with test chemicals formulated in a non-phytotoxic solvent mixture which included a surfactant. At the same time, plants selected from these crop and weed species and also chickweed (common chickweed, Stellaria media), oat, wild (wild oat, Avena fatua), and kochia (Kochia scoparia), were planted in pots containing Sunshine Redi-Earth® planting medium comprising spaghnum peat moss, vermiculite, starter nutrients and dolomitic limestone and treated with postemergence applications of test chemicals formulated in the same manner. Plants ranged in height from 2 to 18 cm (1- to 4-leaf stage) for postemergence treatments. […] A dash (-) response means no test result.

barley, spring = experiment: Test D preemergence; assay type: in vivo, Hordeum vulgare; details: scale 0 to 100
From the text: (§2) Seeds of plant species selected from bluegrass (annual bluegrass, Poa annua), blackgrass (Alopecurus myosuroides), canarygrass (Phalaris minor), chickweed (common chickweed, Stellaria media), galium (catchweed bedstraw, Galium aparine), bromegrass, down (downy bromegrass, Bromus tectorum), Russian thistle (Salsola kali), field poppy (Papaver rhoeas), field violet (Viola arvensis), foxtail, green (green foxtail, Setaria viridis), deadnettle (henbit deadnettle, Lamium amplexicaule), ryegrass, Ital. (Italian ryegrass, Lolium multiflorum), kochia (Kochia scoparia), lambsquarters (Chenopodium album), oilseed rape (Brassica napus), pigweed (Amaranthus retroflexus), chamomile (scentless chamomile, Matricaria inodora), speedwell (bird's-eye speedwell, Veronica persica), barley, spring (spring barley, Hordeum vulgare), wheat, spring (spring wheat, Triticum aestivum), buckwheat, wild (wild buckwheat, Polygonum convolvulus), wild mustard (Sinapis arvensis), oat, wild (wild oat, Avena fatua), radish, wild (wild radish, Raphanus raphanistrum), […]), barley, winter (winter barley, Hordeum vulgare), and wheat, winter (winter wheat, Triticum aestivum) were planted into a silt loam soil and treated preemergence with test chemicals formulated in a non-phytotoxic solvent mixture which included a surfactant. At the same time, these species were planted in pots containing Sunshine Redi-Earth® planting medium comprising spaghnum peat moss, vermiculite, starter nutrients and dolomitic limestone and treated with postemergence applications of the test chemicals formulated in the same manner. Plants ranged in height from 2 to 18 cm (1- to 4-leaf stage). Treated plants and controls were maintained in a controlled growth environment for 14 to 21 d after which time all species were compared to controls and visually evaluated. […] A dash (-) response means no test result.

barley, winter = experiment: Test D preemergence; assay type: in vivo, Hordeum vulgare; details: scale 0 to 100
From the text: as §2

galium = experiment: Test D postemergence; assay type: in vivo, Galium aparine; details: scale 0 to 100
From the text: as §2

field poppy = experiment: Test D postemergence; assay type: in vivo, Papaver rhoeas; details: scale 0 to 100
From the text: as §2

wheat (winter wheat) = experiment: Test C preemergence; assay type: in vivo, Triticum aestivum; details: for Wheat plant response rating (0 to 100): Preemergence, visual rating after 13 to 15 d; for Plant response rating (scale of 0 to 100 where 0 is no effect and 100 is complete control): Wheat, preemergence, 250 g ai/ha
From the text: as §1

wild mustard = experiment: Test D preemergence; assay type: in vivo, Sinapis arvensis; details: scale 0 to 100
From the text: as §2

windgrass = experiment: Test D preemergence; assay type: in vivo, Apera spica-venti; details: scale 0 to 100
From the text: as §2

pigweed [1] = experiment: Test D preemergence; assay type: in vivo, Amaranthus retroflexus; details: scale 0 to 100
From the text: as §2

oilseed rape = experiment: Test D preemergence; assay type: in vivo, Brassica napus; details: scale 0 to 100
From the text: as §2

pigweed [2] = experiment: Test D postemergence; assay type: in vivo, Amaranthus retroflexus; details: scale 0 to 100
From the text: as §2

SMILES	Plant response rating (scale of 0 to 100 where 0 is no effect and 100 is complete control) (foxtail, giant; 125 g ai/ha)	Plant response rating (scale of 0 to 100 where 0 is no effect and 100 is complete control) (foxtail, giant; 250 g ai/ha)	Foxtail, Giant plant response rating (0 to 100) (foxtail, giant; 31 g ai/ha)	Foxtail, Giant plant response rating (0 to 100) (foxtail, giant; 62 g ai/ha)	Plant response rating: Barley, Spring (barley, spring; 31 g ai/ha)	Plant response rating: Barley, Spring (barley, spring; 62 g ai/ha)	Plant response rating: Barley, Spring (barley, spring; 125 g ai/ha)	Plant response rating: Barley, Spring (barley, spring; 250 g ai/ha)	Plant response rating: Barley, Winter (barley, winter; 31 g ai/ha)	Plant response rating: Barley, Winter (barley, winter; 62 g ai/ha)	Plant response rating: Barley, Winter (barley, winter; 125 g ai/ha)	Plant response rating: Barley, Winter (barley, winter; 250 g ai/ha)	Plant response rating: Galium (galium; 31 g ai/ha)	Plant response rating: Galium (galium; 62 g ai/ha)	Plant response rating: Galium (galium; 125 g ai/ha)	Plant response rating: Galium (galium; 250 g ai/ha)	Plant response rating: Field Poppy (field poppy; 31 g ai/ha)	Plant response rating: Field Poppy (field poppy; 62 g ai/ha)	Plant response rating: Field Poppy (field poppy; 125 g ai/ha)	Plant response rating: Field Poppy (field poppy; 250 g ai/ha)	also measured
CCOc1nc(-c2ccc(F)cc2)nn1Cc1ccnc(C(F)(F)F)c1 [Compound 8, 4-[[5-ethoxy-3-(4-fluorophenyl)-1H-1,2,4-triazol-1-yl]methyl]-2-(trifluoromethyl)pyridine]	100	100	100	100	5	20	45	60	5	25	35	45	75	90	95	95	80	90	95	100	Wheat plant response rating (0 to 100) (wheat (winter wheat); 31 g ai/ha): 35; Wheat plant response rating (0 to 100) (wheat (winter wheat); 62 g ai/ha): 45; Plant response rating (scale of 0 to 100 where 0 is no effect and 100 is complete control) (wheat (winter wheat)): 80; Plant response rating: Mustard, Wild (wild mustard; 62 g ai/ha): 100; Plant response rating: Mustard, Wild (wild mustard; 125 g ai/ha): 100; Plant response rating: Mustard, Wild (wild mustard; 250 g ai/ha): 100; Plant response rating: Windgrass (windgrass; 62 g ai/ha): 90; Plant response rating: Windgrass (windgrass; 125 g ai/ha): 100; Plant response rating: Windgrass (windgrass; 250 g ai/ha): 100; Plant response rating: Pigweed (pigweed [1]; 62 g ai/ha): 100; Plant response rating: Pigweed (pigweed [1]; 125 g ai/ha): 100; Plant response rating: Pigweed (pigweed [1]; 250 g ai/ha): 100; Plant response rating: Oilseed Rape (oilseed rape; 62 g ai/ha): 60; Plant response rating: Oilseed Rape (oilseed rape; 125 g ai/ha): 100; Plant response rating: Oilseed Rape (oilseed rape; 250 g ai/ha): 100; Plant response rating: Pigweed (pigweed [2]; 31 g ai/ha): 95; Plant response rating: Pigweed (pigweed [2]; 62 g ai/ha): 95; Plant response rating: Pigweed (pigweed [2]; 125 g ai/ha): 100; Plant response rating: Pigweed (pigweed [2]; 250 g ai/ha): 95
CCc1nc(-c2ccc(C(F)(F)F)cc2)nn1Cc1ccnc(C(F)(F)F)c1 [Compound 1, 4-[[5-ethyl-3-[4-(trifluoromethyl)phenyl]-1H-1,2,4-triazol-1-yl]methyl]-2-(trifluoromethyl)pyridine]	100	100	98	98	0	0	0	5	0	5	10	20	70	70	90	90	70	100	100	100	Wheat plant response rating (0 to 100) (wheat (winter wheat); 31 g ai/ha): 0; Wheat plant response rating (0 to 100) (wheat (winter wheat); 62 g ai/ha): 0; Plant response rating (scale of 0 to 100 where 0 is no effect and 100 is complete control) (wheat (winter wheat)): 5; Plant response rating: Mustard, Wild (wild mustard; 62 g ai/ha): 100; Plant response rating: Mustard, Wild (wild mustard; 125 g ai/ha): 100; Plant response rating: Mustard, Wild (wild mustard; 250 g ai/ha): 100; Plant response rating: Windgrass (windgrass; 62 g ai/ha): 100; Plant response rating: Windgrass (windgrass; 125 g ai/ha): 100; Plant response rating: Windgrass (windgrass; 250 g ai/ha): 100; Plant response rating: Pigweed (pigweed [1]; 62 g ai/ha): 100; Plant response rating: Pigweed (pigweed [1]; 125 g ai/ha): 100; Plant response rating: Pigweed (pigweed [1]; 250 g ai/ha): 100; Plant response rating: Oilseed Rape (oilseed rape; 62 g ai/ha): 100; Plant response rating: Oilseed Rape (oilseed rape; 125 g ai/ha): 100; Plant response rating: Oilseed Rape (oilseed rape; 250 g ai/ha): 100; Plant response rating: Pigweed (pigweed [2]; 31 g ai/ha): 80; Plant response rating: Pigweed (pigweed [2]; 62 g ai/ha): 85; Plant response rating: Pigweed (pigweed [2]; 125 g ai/ha): 85; Plant response rating: Pigweed (pigweed [2]; 250 g ai/ha): 85
